# Experimental data published in article PMC6450558 (Angewandte Chemie (International ed. in English), 2019).
# Target: T1, human ST6Gal-I (Homo sapiens, UniProt P15907)
# T1 sequence (P15907 1-406): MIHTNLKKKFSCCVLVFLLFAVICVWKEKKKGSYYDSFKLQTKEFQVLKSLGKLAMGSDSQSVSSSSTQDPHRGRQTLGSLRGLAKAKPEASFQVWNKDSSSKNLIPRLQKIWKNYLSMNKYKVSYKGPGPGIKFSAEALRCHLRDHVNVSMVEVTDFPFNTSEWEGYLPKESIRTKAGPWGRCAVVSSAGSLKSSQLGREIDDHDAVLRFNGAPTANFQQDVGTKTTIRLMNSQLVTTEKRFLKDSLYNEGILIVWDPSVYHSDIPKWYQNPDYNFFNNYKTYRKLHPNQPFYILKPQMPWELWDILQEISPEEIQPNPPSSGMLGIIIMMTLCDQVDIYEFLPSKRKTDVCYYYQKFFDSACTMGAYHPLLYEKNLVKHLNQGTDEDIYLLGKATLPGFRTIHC
# Assay: sialyltransferase kinetics, donor varied
# Type: biochemical
# Conditions: read-out: ST6Gal-I / KM(app); acceptor LacNAc-butyl (11), fixed concentration
substance,measurement,value
CMP-Neu9NSydCl [compound 9],Km,86 ± 21 µM
